Results as given in patent US20240293323A1, “PHARMACEUTICAL COMPOSITIONS OF AN EPIDERMAL GROWTH FACTOR RECEPTOR INHIBITOR” (Blueprint Mdeicines Coroporation, priority 2021, published 2024).

Test: Aqueous solubility
Type: physicochemical

## CO[C@@H]1CCN(c2nccc(Nc3cc4c(C(C)C)ccc(N5C[C@H](CS(C)(=O)=O)[C@H]5C)c4cn3)n2)C[C@@H]1F [Compound (I), N-(2-((3S,4R)-3-fluoro-4-methoxypiperidin-1-yl)pyrimidin-4-yl)-5-isopropyl-8-((2R,3S)-2-methyl-3-((methylsulfonyl)methyl)azetidin-1-yl)isoquinolin-3-amine]
  aqueous solubility: low aqueous solubility
